Measurements as given in US5643784A, “Indan derivatives” (H, Lundbeck A/S, priority 1990, dated 1997).

Legend:
Wistar WU rats = assay: Light/dark discrimination test in rats; format: in vivo, rat; conditions: doses from 0.1 to 1 mg/kg
Protocol: LIGHT/DARK DISCRIMINATION TEST IN RATS
The test was carried out similarly to the test in mice described above, however modified in accordance with F. C. Colpaert et al., Psychopharmacology (1985) 86:45-54. The test used Wistar WU rats.

male albino BKW mice = assay: Light/dark discrimination test in mice; format: in vivo, mouse; conditions: intraperitoneally 45 min before testing, doses from 0.01 to 1 mg/kg
Protocol: LIGHT/DARK DISCRIMATION TEST IN MICE
This test was carried out in accordance with the method described in Costall et al. Br. J. Pharmacol. 90 275P (1987).
The test was conducted using a two compartment activity box in which the actions of anxiolytic compounds to reduce aversion against a brightly-lit environment may be readily detected. The box is designed as an open-top experimental box (45*27*27 cm) one third of which was partitioned from the rest, painted black and illuminated with red light. The remainder of the box was painted white and brightly illuminated (1000 W). The floor of each area was lined into squares. Behavioral changes were determined for each area from video recordings for periods of 40 min.
Data obtained from dose groups of 5 animals (male albino BKW mice, 25-30 g) were analysed using single factor analysis of variance, and Dunnett's t-test. Test compounds were given intraperitoneally 45 min before testing.

α1 adrenoceptors = assay: Inhibition of 3H-prazosin binding to α1 adrenoceptors in rat brain in vitro; conditions: for IC50: 3H-Prazosin 0.25 nM, rat brain, 25° C., 20 min, read-out: Receptor Binding, IC50 α1 3H-Praz
5-HT2 receptors = target: T1, 5-HT2 receptors (Rattus norvegicus, UniProt P14842); assay: Inhibition of 3H-ketanserin binding to 5-HT2 receptors in rat cortex in vitro; conditions: for IC50: 3H-Ketanserin 0.5 nM, rat cortex, 37° C., 30 min, read-out: Receptor Binding, IC50 5-HT2 3H-Ket
T1 construct: cortical tissue is dissected and weighed; from tissue; host or cells: cortex of male Wistar rats, crude membranes

[1] = Meert and Janssen, Drug Dev. Res. 1989, 18, 119; cited from earlier work
dopamine D-2 receptors = target: T2, dopamine D-2 receptors (Rattus norvegicus, UniProt P61169); assay: Inhibition of 3H-spiperone binding to dopamine D-2 receptors in rat corpus striatum in vitro; conditions: for IC50: 3H-spiperone 0.5 nM, rat corpus striatum, 37° C., 10 min, read-out: Receptor Binding, IC50 DA D-2 3H-Spi
T2 construct: striatal tissue is dissected and weighed; from tissue; host or cells: corpus striatum of male Wistar rats, crude membranes
Protocol: INHIBITION OF ^3 H-SPIPERONE BINDING TO DOPAMINE D-2 RECEPTORS IN RAT CORPUS STRIATUM IN VITRO
By this method the inhibition by drugs of the binding of ^3 H-spiperone (0.5 nM) to dopamine D-2 receptors in membranes from rat corpus striatum is determined in vitro.
Male Wistar (Mol:Wistar) rats (125-250 g) are sacrificed and striatal tissue is dissected and weighed. The tissue is homogenized (Ultra Turrax, 10 sec.) in 10 ml of ice-cold 50 mM K-phosphate buffer pH 7.4 (at 25° C.). The homogenate is centrifuged twice at 20,000 g for 10 min. at 4° C. with rehomogenization of the pellet in 10 ml ice-cold buffer. The final pellet is homogenized in 1300 vol (w/v) ice-cold buffer.
Incubation tubes kept on ice in triplicate receive 100 μl of drug solution in water (or water for total binding) and 4000 μl of tissue suspension (final tissue content corresponds to 3.08 mg original tissue). The binding experimental is initiated by addition of 100 μl of ^3 H-spiperone (final concentration 0.5 nM) and by placing the tubes in a 37° C. water bath. After incubation for 10 min. the samples are filtered under vacuum (0-50 mBar) through Whatman GF/F filters (25 mm). The tubes are rinsed with 5 ml ice-cold buffer which are then poured on the filters. Thereafter, the filters are washed with 2×5 ml of buffer. The filters are placed in counting vials and 4 ml of appropriate scintillation fluid (e.g. Picofluor ™15) are added. After shaking for 1 h and storage 2 hrs in the dark the content of radioactivity is determined by liquid scintillation counting. Specific binding is obtained by subtracting the nonspecific binding in the presence of 10 μM of 6,7-ADTN.
For determination of the inhibition of binding five concentrations of drugs covering 3 decades are used.
^3 H-Spiperone=[phenyl-4-^3 H]-spiperone from Amersham International plc. England, specific activity 15-25 Ci/mmol.

T2 sequence (P61169 whole entry): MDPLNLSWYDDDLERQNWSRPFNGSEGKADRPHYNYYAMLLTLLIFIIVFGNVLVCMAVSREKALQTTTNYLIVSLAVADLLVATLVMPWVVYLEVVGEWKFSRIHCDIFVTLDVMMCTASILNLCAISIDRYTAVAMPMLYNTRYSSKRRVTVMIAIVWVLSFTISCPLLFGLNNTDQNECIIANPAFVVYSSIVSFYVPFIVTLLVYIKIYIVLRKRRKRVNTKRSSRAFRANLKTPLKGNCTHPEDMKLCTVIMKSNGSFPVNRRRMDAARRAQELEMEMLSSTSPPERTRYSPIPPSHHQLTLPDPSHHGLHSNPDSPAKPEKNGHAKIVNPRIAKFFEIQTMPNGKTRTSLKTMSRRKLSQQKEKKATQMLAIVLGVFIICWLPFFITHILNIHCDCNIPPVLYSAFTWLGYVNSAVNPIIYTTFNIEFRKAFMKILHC
T1 sequence (P14842 whole entry): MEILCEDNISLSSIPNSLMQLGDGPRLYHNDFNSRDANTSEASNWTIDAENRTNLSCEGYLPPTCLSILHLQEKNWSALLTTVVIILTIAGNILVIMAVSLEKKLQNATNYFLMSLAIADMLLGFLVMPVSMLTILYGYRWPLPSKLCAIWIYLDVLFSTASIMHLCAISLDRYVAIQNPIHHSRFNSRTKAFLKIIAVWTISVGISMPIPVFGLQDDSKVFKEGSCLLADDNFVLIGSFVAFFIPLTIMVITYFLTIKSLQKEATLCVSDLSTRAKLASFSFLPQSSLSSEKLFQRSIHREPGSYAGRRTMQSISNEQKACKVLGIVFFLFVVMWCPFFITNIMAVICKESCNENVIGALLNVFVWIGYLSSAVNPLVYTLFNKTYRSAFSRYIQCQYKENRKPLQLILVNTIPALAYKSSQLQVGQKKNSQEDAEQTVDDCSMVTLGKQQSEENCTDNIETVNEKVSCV

Structure (SMILES) | anxiolytic activity (Wistar WU rats) | anxiolytic activity (male albino BKW mice) | IC50 (α1 adrenoceptors) [nM] | IC50 (5-HT2 receptors) [nM] | effect in the treatment of anxiety and depression [1] | IC50 (dopamine D-2 receptors) [nM] | affinity to α1 adrenoceptors (in words) (α1 adrenoceptors) | affinity to 5-HT2 receptors (in words) (5-HT2 receptors) | affinity to D-2 receptors (in words) (dopamine D-2 receptors)
O=C1NCCCN1CCN1CCN([C@@H]2C[C@@H](c3ccc(F)cc3)c3cc(F)ccc32)CC1 (single isomer, unassigned) [(+)-33, (+)-Trans-1-[2-[4-[5-fluoro-3-(4-fluorophenyl)-2,3-dihydro-1H-inden-1-yl]piperazin-1-yl]ethyl]-tetrahydro-2(1H)-pyrimidinone] | significant anxiolytic activity (p<0.05) in doses from 0.1 to 1 mg/kg | significant anxiolytic activity (p<0.05) in doses from 0.01 to 1 mg/kg | 41 | 1.1 |  |  |  |  | 
Fc1ccc([C@@H]2C[C@@H](N3CCN(CCN4CCCNC4=S)CC3)c3ccc(F)cc32)cc1 (single isomer, unassigned) [(+)-30, (+)-Trans-1-[2-[4-[5-fluoro-3-(4-fluorophenyl)-2,3-dihydro-1H-inden-1-yl]piperazin-1-yl]ethyl]-tetrahydro-2(1H)-pyrimidinethione] |  | significant anxiolytic activity (p<0.05) in doses from 0.01 to 1 mg/kg | 43 | 0.95 |  |  |  |  | 
Fc1ccc([C@@H]2C[C@@H](N3CCN(CCN4CCCNC4=S)CC3)c3ccc(Cl)cc32)cc1 (single isomer, unassigned) [(-)-32, (-)-Trans-1-[2-[4-[5-chloro-3-(4-fluorophenyl)-2,3-dihydro-1H-inden-1-yl]piperazin-1-yl]ethyl]-tetrahydro-2(1H)-pyrimidinethione] | significant anxiolytic activity (p<0.05) in doses from 0.1 to 1 mg/kg | significant anxiolytic activity (p<0.05) in doses from 0.01 to 1 mg/kg | 67 | 0.75 |  |  |  |  | 
Cc1nc2sccn2c(=O)c1CCN1CCC(=C(c2ccc(F)cc2)c2ccc(F)cc2)CC1 [Ritanserin, reference compound] |  |  | 47 |  | effective in the treatment of anxiety and depression | 12 |  |  | 
O=C1N(CCO)CCN1CCN1CCN([C@@H]2C[C@@H](c3ccc(F)cc3)c3cc(Cl)ccc32)CC1 (relative stereo) [Compound 37, Trans-1-[2-[4-[5-chloro-3-(4-fluorophenyl)-2,3-dihydro-1H-inden-1-yl]piperazin-1-yl]-ethyl]-3-(2-hydroxyethyl)-2-imidazolidinone] |  |  | 710 | 6.1 |  | 320 |  |  | 
OCCN1CCN([C@@H]2C[C@@H](c3ccc(F)cc3)c3ccc(C(F)(F)F)cc32)CC1 (racemic) [Tefludazine, reference compound] |  |  | 17 | 4.6 |  | 10 | high affinity to all three receptor types | high affinity to all three receptor types | high affinity to all three receptor types
